Counter-ions that a name gives are not always drawn. Blank lines part the entries; values can stand above or below the compound they belong to.
How the values were obtained:
[1] = instrument: DT, stepped-field
[2] = instrument: DT, single field, calibrated with Agilent tune mix (Agilent)

SMILES: Nc1ncnc2c1ncn2[C@H]1C[C@H](O)[C@@H](CO)O1 [2'-Deoxyadenosine]
collision cross section (N2) ([1]; [M+H]+): 162.73 Å²
collision cross section (N2) ([1]; [M+Na]+): 166.67 Å²

SMILES: N[C@@H](Cc1ccccc1Cl)C(=O)O [2-Chloro-L-Phenylalanine]
collision cross section (N2) ([1]; [M+H]+): 148.86 Å²

SMILES: Cc1ccccc1C(=O)NCC(=O)O [2-Methylhippuric Acid]
collision cross section (N2) ([1]; [M+Na]+): 156.6 Å²

SMILES: CC(C)=CC(=O)SCCNC(=O)CCNC(=O)C(O)C(C)(C)COP(=O)(O)OP(=O)(O)OC[C@H]1O[C@@H](n2cnc3c(N)ncnc32)[C@H](O)[C@@H]1OP(=O)(O)O (some centres undefined) [3-Methylcrotonyl-CoA]
collision cross section (N2) ([1]; [M+H]+): 180.03 Å²

SMILES: CC(=O)NCCCC(=O)O [4-Acetamidobutanoic Acid]
collision cross section (N2) ([1]; [M+Na]+): 138.57 Å²

SMILES: NC(N)=NCCCC(=O)O [4-Guanidinobutanoic Acid]
collision cross section (N2) ([1]; [M+H]+): 132.8 Å²

SMILES: N[C@@H](Cc1c[nH]c2ccc(O)cc12)C(=O)O [5-Hydroxy-L-Tryptophan]
collision cross section (N2) ([1]; [M+H]+): 157.88 Å²
collision cross section (N2) ([1]; [M+Na]+): 156.47 Å²

SMILES: C[C@@H]1OC(O)[C@@H](O)[C@H](O)[C@@H]1O (stereo partly drawn) [6-Deoxy-L-galactose]
collision cross section (N2) ([1]; [M+Na]+): 147.32 Å²

SMILES: O=C(O)c1ccc(=O)[nH]c1 [6-Hydroxynicotinate]
collision cross section (N2) ([1]; [M+H]+): 136.43 Å²

SMILES: O=C(O)[C@H](O)[C@@H](O)[C@H](O)[C@H](O)COP(=O)(O)O [6-Phosphogluconic Acid]
collision cross section (N2) ([1]; [M+Na]+): 167.16 Å²

SMILES: CCCCC/C=C\C=C\C(O)CCCCCCCC(=O)O (centres undefined) [9-HODE]
collision cross section (N2) ([1]; [M+Na]+): 189.14 Å²

SMILES: CCCCCC(=O)/C=C/C=C/CCCCCCCC(=O)O [13-OxoODE]
collision cross section (N2) ([1]; [M+H]+): 179.4 Å²
collision cross section (N2) ([1]; [M+Na]+): 193.37 Å²

SMILES: CCCCCC1OC1C/C=C\C/C=C\C/C=C\CCCC(=O)O (centres undefined) [14(15)-EET]
collision cross section (N2) ([1]; [M+H]+): 182.43 Å²
collision cross section (N2) ([1]; [M+Na]+): 187.07 Å²

SMILES: CCCCCCCCCCCCCCCCCC(=O)OC[C@@H](O)COP(=O)([O-])OCC[N+](C)(C)C [18:0 Lyso PC]
collision cross section (N2) ([1]; [M+Na]+): 243.07 Å²

SMILES: CCOCN(C(=O)CCl)c1c(C)cccc1CC [Acetochlor]
collision cross section (N2) ([1]; [M+H]+): 160.09 Å²
collision cross section (N2) ([1]; [M+Na]+): 174.6 Å²

SMILES: CC(=O)Oc1ccccc1C(=O)O [Acetylsalicylic Acid]
collision cross section (N2) ([1]; [M+Na]+): 146.8 Å²

SMILES: Nc1ncnc2c1ncn2[C@@H]1O[C@H](COP(=O)(O)OP(=O)(O)O)[C@@H](O)[C@H]1O [Adenosine 5' Diphosphate]
collision cross section (N2) ([1]; [M+H]+): 188.61 Å²
collision cross section (N2) ([1]; [M+Na]+): 196.92 Å²

SMILES: NC(=O)NC1NC(=O)NC1=O (centres undefined) [Allantoin]
collision cross section (N2) ([1]; [M+Na]+): 145.61 Å²

SMILES: O=C1c2ccccc2C(=O)c2ccccc21 [Anthraquinone]
collision cross section (N2) ([1]; [M+H]+): 141.89 Å²

SMILES: CCCCCCCCCCCCCCCCCCCC(=O)O [Arachidic Acid]
collision cross section (N2) ([1]; [M+Na]+): 199.97 Å²

SMILES: C[C@@H]1O[C@@H](O[C@H]2C(=O)c3c(O)cc(O)cc3O[C@@H]2c2ccc(O)c(O)c2)[C@H](O)[C@H](O)[C@H]1O [Astilbin]
collision cross section (N2) ([1]; [M+H]+): 205.87 Å²
collision cross section (N2) ([1]; [M+Na]+): 212.64 Å²

SMILES: C=C1C2CCC(C2)C1(C)C (centres undefined) [Camphene]
collision cross section (N2) ([1]; [M+H]+): 130.63 Å²
collision cross section (N2) ([1]; [M+Na]+): 133.01 Å²

SMILES: CCCCC[C@H](O)/C=C/[C@H]1CC2CC(C2)[C@@H]1C/C=C\CCCC(=O)O [Carbocyclic Thromboxane A2]
collision cross section (N2) ([1]; [M+Na]+): 203.6 Å²

SMILES: OC[C@H]1O[C@@H](O[C@H]2[C@H](O)[C@@H](O)[C@H](O[C@H]3[C@H](O)[C@@H](O)[C@H](O[C@H]4[C@H](O)[C@@H](O)[C@H](O[C@H]5[C@H](O)[C@@H](O)[C@H](O[C@H]6[C@H](O)[C@@H](O)[C@H](O)O[C@@H]6CO)O[C@@H]5CO)O[C@@H]4CO)O[C@@H]3CO)O[C@@H]2CO)[C@H](O)[C@@H](O)[C@@H]1O [Cellohexaose]
collision cross section (N2) ([1]; [M+Na]+): 283.13 Å²

SMILES: OC[C@H]1O[C@@H](O[C@H]2[C@H](O)[C@@H](O)[C@H](O[C@H]3[C@H](O)[C@@H](O)[C@H](O[C@H]4[C@H](O)[C@@H](O)[C@H](O[C@H]5[C@H](O)[C@@H](O)C(O)O[C@@H]5CO)O[C@@H]4CO)O[C@@H]3CO)O[C@@H]2CO)[C@H](O)[C@@H](O)[C@@H]1O (some centres undefined) [Cellopentaose]
collision cross section (N2) ([1]; [M+Na]+): 251.04 Å²

SMILES: O=C/C=C/c1ccccc1 [Cinnamaldehyde]
collision cross section (N2) ([1]; [M+H]+): 134.25 Å²

SMILES: O=C(O)/C=C/c1ccccc1 [Cinnamic Acid]
collision cross section (N2) ([1]; [M+H]+): 145.31 Å²

SMILES: N#C[C@H](O[C@@H]1O[C@H](CO)[C@@H](O)[C@H](O)[C@H]1O)c1ccccc1 [Prunasin]
collision cross section (N2) ([2]; [M+Na]+): 173.7 Å²

SMILES: CNCC(O)c1ccc(O)cc1 (centres undefined) [Synephrine]
collision cross section (N2) ([2]; [M+H-H2O]+): 134.4 Å²

Continued, values first:

collision cross section (N2) ([2]; [M+H]+): 196.2 Å²
collision cross section (N2) ([2]; [M-H]-): 180.68 Å²
SMILES: CCCCCCCCCCCCCC[C@@H](O)[C@@H](O)[C@@H](N)CO [Phytosphingosine]

collision cross section (N2) ([2]; [M+Na]+): 206.3 Å²
collision cross section (N2) ([2]; [M-H]-): 178.79 Å²
SMILES: CC(C)CCCC(C)CCCC(C)CCCC(C)C(=O)O (centres undefined) [Pristanic acid]

collision cross section (N2) ([2]; [M+Na]+): 198.3 Å²
collision cross section (N2) ([2]; [M-H2O-H]-): 181.94 Å²
SMILES: CCCCC[C@H](O)/C=C/[C@H]1[C@H](O)CC(=O)[C@@H]1CCCCCCC(=O)O [Prostaglandin E1]

collision cross section (N2) ([2]; [M+H]+): 241.4 Å²
collision cross section (N2) ([2]; [M-H]-): 245.23 Å²
SMILES: C=Cc1c(C)c2cc3[nH]c(cc4nc(cc5nc(cc1[nH]2)C(C)=C5CCC(=O)O)C(CCC(=O)O)=C4C)c(C)c3C=C [Protoporphyrin IX]

collision cross section (N2) ([2]; [M+H]+): 151.4 Å²
collision cross section (N2) ([2]; [M-H]-): 146.34 Å²
SMILES: Cc1ncc(COP(=O)(O)O)c(C=O)c1O [Pyridoxal 5'-phosphate]

collision cross section (N2) ([2]; [M+Na]+): 150.9 Å²
collision cross section (N2) ([2]; [M-H]-): 132.25 Å²
SMILES: O=C(O)C1(O)C[C@@H](O)C(O)[C@H](O)C1 (some centres undefined) [Quinate]

collision cross section (N2) ([2]; [M+Na]+): 136.3 Å²
SMILES: OC[C@@H](O)C(O)[C@@H](O)CO (some centres undefined) [Ribitol]

collision cross section (N2) ([2]; [M+Na]+): 165.6 Å²
collision cross section (N2) ([2]; [M-H]-): 153.52 Å²
SMILES: Cc1cn([C@@H]2O[C@H](CO)[C@@H](O)[C@H]2O)c(=O)[nH]c1=O [Ribothymidine]

collision cross section (N2) ([2]; [M+Na]+): 195.6 Å²
collision cross section (N2) ([2]; [M-H]-): 170.26 Å²
SMILES: O=C(/C=C/c1ccc(O)c(O)c1)O[C@H](Cc1ccc(O)c(O)c1)C(=O)O [Rosmarinic Acid]

collision cross section (N2) ([2]; [M+H-H2O]+): 136.5 Å²
collision cross section (N2) ([2]; [M-H]-): 146.84 Å²
SMILES: COc1cc(/C=C/CO)cc(OC)c1O [Sinapyl alcohol]

collision cross section (N2) ([2]; [M+H]+): 148.2 Å²
SMILES: NCCCNCCCCNCCCN [Spermine]

collision cross section (N2) ([2]; [M+H]+): 188 Å²
SMILES: CCCCCCCCCCCCCCC[C@@H](O)[C@@H](N)CO [Sphinganine]

collision cross section (N2) ([2]; [M+H]+): 186 Å²
SMILES: CCCCCCCCCCCCC/C=C/[C@@H](O)[C@@H](N)CO [Sphingosine]

collision cross section (N2) ([2]; [M+H]+): 302.9 Å²
collision cross section (N2) ([2]; [M-H]-): 301.81 Å²
SMILES: CCCCCCCCCCCCCCCCCC(=O)SCCNC(=O)CCNC(=O)[C@H](O)C(C)(C)COP(=O)(O)OP(=O)(O)OC[C@H]1O[C@@H](n2cnc3c(N)ncnc32)[C@H](O)[C@@H]1OP(=O)(O)O [Stearoyl-CoA]

collision cross section (N2) ([2]; [M-H]-): 197.93 Å²
SMILES: CCCCCCCCCCCCCCCCCCCCCCCC(=O)O [Tetracosanoic acid]

collision cross section (N2) ([2]; [M+H]+): 162.4 Å²
collision cross section (N2) ([2]; [M-H]-): 160.3 Å²
SMILES: Cc1ncc(C[n+]2csc(CCO)c2C)c(N)n1 [Thiamine]

collision cross section (N2) ([2]; [M+H]+): 208.8 Å²
collision cross section (N2) ([2]; [M-H]-): 222 Å²
SMILES: CC(=O)N[C@H]1[C@@H](OP(=O)(O)OP(=O)(O)OC[C@H]2O[C@@H](n3ccc(=O)[nH]c3=O)[C@H](O)[C@@H]2O)O[C@H](CO)[C@@H](O)[C@@H]1O [UDP-N-acetylglucosamine]

collision cross section (N2) ([2]; [M-H]-): 178.55 Å²
SMILES: O=c1ccn([C@@H]2O[C@H](COP(=O)(O)OP(=O)(O)OP(=O)(O)O)[C@@H](O)[C@H]2O)c(=O)[nH]1 [Uridine 5'-triphosphate]

collision cross section (N2) ([2]; [M+H]+): 285.1 Å²
collision cross section (N2) ([2]; [M-H]-): 267.79 Å²
SMILES: O=C(O)CCC1=C(CC(=O)O)c2cc3nc(cc4[nH]c(cc5[nH]c(cc1n2)c(CC(=O)O)c5CCC(=O)O)c(CC(=O)O)c4CCC(=O)O)C(CC(=O)O)=C3CCC(=O)O [Uroporphyrin I]

collision cross section (N2) ([2]; [M+H]+): 129.7 Å²
collision cross section (N2) ([2]; [M-H]-): 124.3 Å²
SMILES: COc1cc(C=O)ccc1O [Vanillin]

collision cross section (N2) ([2]; [M+H]+): 216.1 Å²
collision cross section (N2) ([2]; [M-H]-): 210.94 Å²
SMILES: CC1=C(C/C=C(\C)CCC[C@H](C)CCC[C@H](C)CCCC(C)C)C(=O)c2ccccc2C1=O [Vitamin K1]

collision cross section (N2) ([2]; [M+H]+): 140.5 Å²
collision cross section (N2) ([2]; [M-H]-): 132.51 Å²
SMILES: O=C(O)c1cc(=O)c2cccc(O)c2[nH]1 [Xanthurenic acid]

collision cross section (N2) ([2]; [M+H]+): 170.7 Å²
collision cross section (N2) ([2]; [M-H]-): 173.07 Å²
SMILES: CC/C=C\C/C=C\C/C=C\CCCCCCCC(=O)O [alpha-Linolenic acid]

collision cross section (N2) ([2]; [M+H]+): 216.6 Å²
collision cross section (N2) ([2]; [M-H]-): 208.52 Å²
SMILES: Cc1c(C)c2c(c(C)c1O)CC[C@@](C)(CCC[C@H](C)CCC[C@H](C)CCCC(C)C)O2 [alpha-Tocopherol]

collision cross section (N2) ([2]; [M+H]+): 172.8 Å²
SMILES: Nc1nc(=O)c2ncn([C@@H]3O[C@@H]4COP(=O)(O)O[C@H]4[C@H]3O)c2[nH]1 [cGMP]

collision cross section (N2) ([2]; [M+H]+): 128.4 Å²
collision cross section (N2) ([2]; [M-H]-): 122.02 Å²
SMILES: O=C(O)[C@H]1C[C@@H](O)CN1 [cis-4-Hydroxy-D-proline]

collision cross section (N2) ([2]; [M+H]+): 162.6 Å²
collision cross section (N2) ([2]; [M-H2O-H]-): 152.43 Å²
SMILES: N[C@@H](CCC(=O)N[C@@H](CCC(=O)O)C(=O)O)C(=O)O [gamma-L-Glutamyl-L-glutamic acid]

collision cross section (N2) ([2]; [M+Na]+): 148.2 Å²
collision cross section (N2) ([2]; [M-H]-): 128.61 Å²
SMILES: OC1C(O)C(O)C(O)C(O)C1O (centres undefined) [myo-Inositol]

collision cross section (N2) ([2]; [M-H]-): 203.91 Å²
SMILES: CC(=O)[C@H]1CC[C@H]2[C@@H]3CC=C4C[C@@H](OS(=O)(=O)O)CC[C@]4(C)[C@H]3CC[C@]12C [pregnenolone sulfate]

collision cross section (N2) ([2]; [M-H]-): 141.13 Å²
SMILES: CCCCC/C=C/C(=O)O [trans-2-Octenoic acid]

collision cross section (N2) ([2]; [M+H]+): 125.3 Å²
SMILES: O=C(O)/C=C/c1ccccc1 [trans-cinnamate]

From the C3SDB collision cross section collection
